Square brackets hold non-standard residues; d marks the D form. Peptide text beside a SMILES is read from it. * marks the point of attachment. DOTA = O=C(O)CN1CCN(CC(=O)O)CCN(CC(=O)*)CCN(CC(=O)O)CC1; Butanoyl(4-(4-I-phenyl)) = O=C(CCCc1ccc(I)cc1)*; Gly(N-3-F-4-Me-benzyl) = Cc1ccc(CNCC(=O)O)cc1F; Bpa = N[C@@H](Cc1ccc(C(=O)c2ccccc2)cc1)C(=O)O; Butanoyl(4-(4-MePh)) = Cc1ccc(CCCC(=O)*)cc1; Api(1-amidino) = N=C(N)N1CCC(N)(C(=O)O)CC1; Hydrocinnamoyl(4-Me) = Cc1ccc(CCC(=O)*)cc1; Hydrocinnamoyl(4-I) = O=C(CCc1ccc(I)cc1)*; Phe(4-CN) = N#Cc1ccc(C[C@H](N)C(=O)O)cc1; d2Nal = N[C@H](Cc1ccc2ccccc2c1)C(=O)O; Palmitoyl = CCCCCCCCCCCCCCCC(=O)*; Cha = N[C@@H](CC1CCCCC1)C(=O)O; Lauroyl = CCCCCCCCCCCC(=O)*; Octanoyl = CCCCCCCC(=O)*; Api = NC1(C(=O)O)CCNCC1; PEG2 = NCCOCCOCCC(=O)O; Ahx = NCCCCCC(=O)O; azaGly = NNC(=O)O; Sar = CNCC(=O)O
Target: human kisspeptin receptor (Homo sapiens (Human), UniProt Q969F8)
Experiment: Human KISS1R binding assay (membrane competition binding)
Conditions: 90 min at room temperature; competition with 0.2 nM [125I]-metastin (45-54); Flp-In T-Rex 293 kisspeptin membranes; metal complexes nonradioactive Ga, In, Lu; read-out: hKiSSR Binding Ki (90 min)
Method in brief: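 Radioligand competition: 0.2 nM [125I]-metastin (45-54) displaced by test ligand (usually 0–10,000 nM) over 90 min at room temperature, pH 7.4 buffer with 0.1% BSA. Receptor source is crude membrane (5–10 μg) from tetracycline-induced Flp-In T-Rex 293 cells. Bound label filtered and counted; Ki from non-linear regression.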

Chain of human kisspeptin receptor (Q969F8 whole entry): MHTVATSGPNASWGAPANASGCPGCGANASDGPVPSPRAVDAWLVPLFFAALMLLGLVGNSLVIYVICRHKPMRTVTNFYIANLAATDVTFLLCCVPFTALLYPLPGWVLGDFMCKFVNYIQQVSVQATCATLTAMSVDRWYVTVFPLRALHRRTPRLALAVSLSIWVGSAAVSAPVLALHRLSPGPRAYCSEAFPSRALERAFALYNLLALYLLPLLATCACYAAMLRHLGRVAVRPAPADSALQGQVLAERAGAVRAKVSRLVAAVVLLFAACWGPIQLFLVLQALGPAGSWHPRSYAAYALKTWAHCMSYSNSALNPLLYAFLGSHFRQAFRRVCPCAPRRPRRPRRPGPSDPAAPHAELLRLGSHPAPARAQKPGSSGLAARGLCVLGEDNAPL

Ki [nM]	SMILES
< 10	Cc1ccc(CCC(=O)NCCOCCOCCC(=O)N[C@H](Cc2ccc(O)cc2)C(=O)N[C@@H](CCCCNC(=O)CN2CCN(CC(=O)O)CCN(CC(=O)O)CCN(CC(=O)O)CC2)C(=O)N[C@@H](CC(N)=O)C(=O)N[C@H](C(=O)N[C@@H](Cc2ccccc2)C(=O)NNC(=O)N[C@@H](CC(C)C)C(=O)NC2(C(=O)N[C@@H](Cc3ccc(C#N)cc3)C(N)=O)CCN(C(=N)N)CC2)[C@@H](C)O)cc1 [Compound 333] ({Hydrocinnamoyl(4-Me)-PEG2}-[dY]K(DOTA)NTF[azaGly]L[Api(1-amidino)][Phe(4-CN)]-NH2)
< 10	CC(C)C[C@H](NC(=O)NNC(=O)[C@H](Cc1ccccc1)NC(=O)[C@@H](NC(=O)[C@H](CC(N)=O)NC(=O)[C@@H](CCCCNC(=O)CN1CCN(CC(=O)O)CCN(CC(=O)O)CCN(CC(=O)O)CC1)NC(=O)[C@@H](Cc1ccc(O)cc1)NC(=O)CCOCCOCCNC(=O)CCc1ccc(I)cc1)[C@@H](C)O)C(=O)NC1(C(=O)N[C@@H](Cc2c[nH]c3ccccc23)C(N)=O)CCN(C(=N)N)CC1 [Compound 334] ({Hydrocinnamoyl(4-I)-PEG2}-[dY][dK](DOTA)NTF[azaGly]L[Api(1-amidino)]W-NH2)
< 10	Cc1ccc(CCCC(=O)NCCCC[C@@H](NC(=O)CCCCCNC(=O)CN2CCN(CC(=O)O)CCN(CC(=O)O)CCN(CC(=O)O)CC2)C(=O)N[C@H](Cc2ccc(O)cc2)C(=O)N[C@H](Cc2ccc3ccccc3c2)C(=O)N[C@@H](CC(N)=O)C(=O)N[C@H](C(=O)N[C@@H](Cc2ccccc2)C(=O)NNC(=O)N[C@@H](CC(C)C)C(=O)NC2(C(=O)N[C@@H](Cc3c[nH]c4ccccc34)C(N)=O)CCN(C(=N)N)CC2)[C@@H](C)O)cc1 [Compound 335] ({DOTA-Ahx}-[dK](Butanoyl(4-(4-MePh)))[dY][d2Nal]NTF[azaGly]L[Api(1-amidino)]W-NH2)
< 10	Cc1ccc(CCC(=O)NCCOCCOCCC(=O)N[C@H](Cc2ccc(O)cc2)C(=O)N[C@H](CCCCNC(=O)CN2CCN(CC(=O)O)CCN(CC(=O)O)CCN(CC(=O)O)CC2)C(=O)N[C@@H](CC(N)=O)C(=O)N[C@H](C(=O)N[C@@H](Cc2ccccc2)C(=O)NNC(=O)N[C@@H](CC(C)C)C(=O)NC2(C(=O)N[C@@H](Cc3c[nH]c4ccccc34)C(N)=O)CCN(C(=N)N)CC2)[C@@H](C)O)cc1 [Compound 338] ({Hydrocinnamoyl(4-Me)-PEG2}-[dY][dK](DOTA)NTF[azaGly]L[Api(1-amidino)]W-NH2)
< 10	CNCC(=O)N1CCC(NC(=O)[C@H](CC(C)C)NC(=O)NNC(=O)[C@H](Cc2ccccc2)NC(=O)[C@@H](NC(=O)[C@H](CC(N)=O)NC(=O)[C@H](Cc2ccc(C(=O)c3ccccc3)cc2)NC(=O)[C@@H](Cc2ccc(O)cc2)NC(=O)CCCCCNC(=O)CN2CCN(CC(=O)O)CCN(CC(=O)O)CCN(CC(=O)O)CC2)[C@@H](C)O)(C(=O)N[C@H](Cc2c[nH]c3ccccc23)C(N)=O)CC1 [Compound 345] ({DOTA-Ahx}-[dY][Bpa]NTF[azaGly]L[Api](Sar)[dW]-NH2)
< 10	CNCC(=O)N1CCC(NC(=O)[C@H](CC(C)C)NC(=O)NNC(=O)[C@H](Cc2ccccc2)NC(=O)[C@@H](NC(=O)[C@H](CC(N)=O)NC(=O)[C@H](Cc2ccc(C(=O)c3ccccc3)cc2)NC(=O)[C@@H](Cc2ccc(O)cc2)NC(=O)CCCCCNC(=O)CN2CCN(CC(=O)O)CCN(CC(=O)O)CCN(CC(=O)O)CC2)[C@@H](C)O)(C(=O)N[C@@H](Cc2c[nH]c3ccccc23)C(N)=O)CC1 [Compound 346] ({DOTA-Ahx}-[dY][Bpa]NTF[azaGly]L[Api](Sar)W-NH2)
< 10	CNCC(=O)N1CCC(NC(=O)[C@H](CC(C)C)NC(=O)NNC(=O)[C@H](CC2CCCCC2)NC(=O)[C@@H](NC(=O)[C@H](CC(N)=O)NC(=O)[C@H](CCCCNC(=O)CN2CCN(CC(=O)O)CCN(CC(=O)O)CCN(CC(=O)O)CC2)NC(=O)[C@@H](Cc2ccc(O)cc2)NC(=O)CCOCCOCCNC(=O)CCc2ccc(C)cc2)[C@@H](C)O)(C(=O)N[C@H](Cc2c[nH]c3ccccc23)C(N)=O)CC1 [Compound 356] ({Hydrocinnamoyl(4-Me)-PEG2}-[dY]K(DOTA)NT[Cha][azaGly]L[Api](Sar)[dW]-NH2)
< 10	CNCC(=O)N1CCC(NC(=O)[C@H](CC(C)C)NC(=O)NNC(=O)[C@H](Cc2ccccc2)NC(=O)[C@@H](NC(=O)[C@H](CC(N)=O)NC(=O)[C@@H](CCCCNC(=O)CN2CCN(CC(=O)O)CCN(CC(=O)O)CCN(CC(=O)O)CC2)NC(=O)[C@@H](Cc2ccc(O)cc2)NC(=O)CCOCCOCCNC(=O)CCc2ccc(C)cc2)[C@@H](C)O)(C(=O)N[C@H](Cc2c[nH]c3ccccc23)C(N)=O)CC1 [Compound 357] ({Hydrocinnamoyl(4-Me)-PEG2}-[dY][dK](DOTA)NTF[azaGly]L[Api](Sar)[dW]-NH2)
< 10	CNCC(=O)N1CCC(NC(=O)[C@H](CC(C)C)NC(=O)NNC(=O)[C@H](CC2CCCCC2)NC(=O)[C@@H](NC(=O)[C@H](CC(N)=O)NC(=O)[C@@H](CCCCNC(=O)CN2CCN(CC(=O)O)CCN(CC(=O)O)CCN(CC(=O)O)CC2)NC(=O)[C@@H](Cc2ccc(O)cc2)NC(=O)CCOCCOCCNC(=O)CCc2ccc(C)cc2)[C@@H](C)O)(C(=O)N[C@H](Cc2c[nH]c3ccccc23)C(N)=O)CC1 [Compound 358] ({Hydrocinnamoyl(4-Me)-PEG2}-[dY][dK](DOTA)NT[Cha][azaGly]L[Api](Sar)[dW]-NH2)
< 10	CNCC(=O)N1CCC(NC(=O)[C@H](CC(C)C)NC(=O)NNC(=O)[C@H](Cc2ccccc2)NC(=O)[C@@H](NC(=O)[C@H](CC(N)=O)NC(=O)[C@H](CCCCNC(=O)CN2CCN(CC(=O)O)CCN(CC(=O)O)CCN(CC(=O)O)CC2)NC(=O)[C@@H](Cc2ccc(O)cc2)NC(=O)CCOCCOCCNC(=O)CNCc2ccc(C)c(F)c2)[C@@H](C)O)(C(=O)N[C@H](Cc2c[nH]c3ccccc23)C(N)=O)CC1 [Compound 359] (H-[Gly(N-3-F-4-Me-benzyl)][PEG2][dY]K(DOTA)NTF[azaGly]L[Api](Sar)[dW]-NH2)

Second part, the compound before the results:

SMILES	Ki [nM]
CCCCCCCCCCCCCCCC(=O)N[C@H](Cc1ccc(O)cc1)C(=O)N[C@@H](CCCCNC(=O)CN1CCN(CC(=O)O)CCN(CC(=O)O)CCN(CC(=O)O)CC1)C(=O)N[C@@H](CC(N)=O)C(=O)N[C@H](C(=O)N[C@@H](Cc1ccccc1)C(=O)NNC(=O)N[C@@H](CC(C)C)C(=O)NC1(C(=O)N[C@@H](Cc2ccc(O)cc2)C(N)=O)CCN(C(=N)N)CC1)[C@@H](C)O [Compound 330] (Palmitoyl-[dY]K(DOTA)NTF[azaGly]L[Api(1-amidino)]Y-NH2)	< 10
CCCCCCCCCCCC(=O)N[C@H](Cc1ccc(O)cc1)C(=O)N[C@@H](CCCCNC(=O)CN1CCN(CC(=O)O)CCN(CC(=O)O)CCN(CC(=O)O)CC1)C(=O)N[C@@H](CC(N)=O)C(=O)N[C@H](C(=O)N[C@@H](Cc1ccccc1)C(=O)NNC(=O)N[C@@H](CC(C)C)C(=O)NC1(C(=O)N[C@@H](Cc2ccc(O)cc2)C(N)=O)CCN(C(=N)N)CC1)[C@@H](C)O [Compound 331] (Lauroyl-[dY]K(DOTA)NTF[azaGly]L[Api(1-amidino)]Y-NH2)	< 10
CCCCCCCC(=O)N[C@H](Cc1ccc(O)cc1)C(=O)N[C@@H](CCCCNC(=O)CN1CCN(CC(=O)O)CCN(CC(=O)O)CCN(CC(=O)O)CC1)C(=O)N[C@@H](CC(N)=O)C(=O)N[C@H](C(=O)N[C@@H](Cc1ccccc1)C(=O)NNC(=O)N[C@@H](CC(C)C)C(=O)NC1(C(=O)N[C@@H](Cc2ccc(O)cc2)C(N)=O)CCN(C(=N)N)CC1)[C@@H](C)O [Compound 332] (Octanoyl-[dY]K(DOTA)NTF[azaGly]L[Api(1-amidino)]Y-NH2)	< 10
CC(C)C[C@H](NC(=O)NNC(=O)[C@H](Cc1ccccc1)NC(=O)[C@@H](NC(=O)[C@H](CC(N)=O)NC(=O)[C@@H](Cc1ccc2ccccc2c1)NC(=O)[C@@H](Cc1ccc(O)cc1)NC(=O)[C@@H](CCCCNC(=O)CCCc1ccc(I)cc1)NC(=O)CCCCCNC(=O)CN1CCN(CC(=O)O)CCN(CC(=O)O)CCN(CC(=O)O)CC1)[C@@H](C)O)C(=O)NC1(C(=O)N[C@@H](Cc2c[nH]c3ccccc23)C(N)=O)CCN(C(=N)N)CC1 [Compound 336] ({DOTA-Ahx}-[dK](Butanoyl(4-(4-I-phenyl)))[dY][d2Nal]NTF[azaGly]L[Api(1-amidino)]W-NH2)	< 10
CC(C)C[C@H](NC(=O)NNC(=O)[C@H](Cc1ccccc1)NC(=O)[C@@H](NC(=O)[C@H](CC(N)=O)NC(=O)[C@@H](Cc1ccc2ccccc2c1)NC(=O)[C@@H](Cc1ccc(O)cc1)NC(=O)CCCCCNC(=O)[C@@H](CCCCNC(=O)CCCc1ccc(I)cc1)NC(=O)CCCCCNC(=O)CN1CCN(CC(=O)O)CCN(CC(=O)O)CCN(CC(=O)O)CC1)[C@@H](C)O)C(=O)NC1(C(=O)N[C@@H](Cc2c[nH]c3ccccc23)C(N)=O)CCN(C(=N)N)CC1 [Compound 337] ({DOTA-Ahx}-[dK](Butanoyl(4-(4-I-phenyl)))[Ahx][dY][d2Nal]NTF[azaGly]L[Api(1-amidino)]W-NH2)	< 10
CC(C)C[C@H](NC(=O)NNC(=O)[C@H](Cc1ccccc1)NC(=O)[C@@H](NC(=O)[C@H](CC(N)=O)NC(=O)[C@@H](Cc1ccc2ccccc2c1)NC(=O)[C@@H](Cc1ccc(O)cc1)NC(=O)CCCCCNC(=O)CN1CCN(CC(=O)O)CCN(CC(=O)O)CCN(CC(=O)O)CC1)[C@@H](C)O)C(=O)NC1(C(=O)N[C@H](Cc2c[nH]c3ccccc23)C(N)=O)CCNCC1 [Compound 339] ({DOTA-Ahx}-[dY][d2Nal]NTF[azaGly]L[Api][dW]-NH2)	< 10
CCCCCCCC(=O)N[C@H](Cc1ccc(O)cc1)C(=O)N[C@H](CCCCNC(=O)CN1CCN(CC(=O)O)CCN(CC(=O)O)CCN(CC(=O)O)CC1)C(=O)N[C@@H](CC(N)=O)C(=O)N[C@H](C(=O)N[C@@H](CC1CCCCC1)C(=O)NNC(=O)N[C@@H](CC(C)C)C(=O)NC1(C(=O)N[C@H](Cc2c[nH]c3ccccc23)C(N)=O)CCN(C(=O)CNC)CC1)[C@@H](C)O [Compound 355] (Octanoyl-[dY][dK](DOTA)NT[Cha][azaGly]L[Api](Sar)[dW]-NH2)	< 10

— US20250312499A1, “KISSPEPTIN RECEPTOR (KISS1R) TARGETED THERAPEUTICS AND USES THEREOF” (priority 2024, published 2025)
